{"source": "patent US20110064773A1", "about": "“PHARMACEUTICAL COMPOSITIONS COMPRISING A THYROID HORMON AND THEIR THERAPEUTIC USE” (UNIVERSITE JOSEPH FOURIER, priority 2007, published 2011)", "format_in_all_cases": "in vivo, rat", "key": {"Wistar rats [1]": {"tested_on": "Wistar rats", "assay": "Indirect calorimetry (energy expenditure, respiratory quotient) of Wistar rats", "conditions": "for Energy expenditure and respiratory quotient (metabolic activity): 2.5 μg/100 g continuous, 21 days; for Energy expenditure (EE, metabolism): 25 μg/100 g BW", "from_the_text": "Energy expenditure as well as the nature of substrate oxidized (carbohydrates or lipids) were investigated by indirect calorimetry. This principle is based on the determinations of CO2 release (VCO2) and O2 consumption (VO2) by each animal. It assumes that O2 is entirely involved in substrate oxidation in the respiratory chain (leading to water production) while CO2 release is related to substrate decarboxylation (in the Krebs' cycle). These measurements allow assessing energy expenditure (EE) and respiratory quotient ([…], RQ). EE represent the absolute energy dissipation during rest and activity. RQ is a relative measurement indicating the ratio of carbohydrate versus lipid involved in oxidative pathway. A ratio of 1.0 indicates exclusive carbohydrate oxidation while a ratio of 0.7 indicates exclusive lipid oxidation. Each value between these two extreme values indicates the relative proportion of each substrate (of note protein oxidation was not evaluated). As an example, RQ approaches 0.7 during fasting, indicating lipid oxidation, conversely after feeding RQ increases close to 1 indicating carbohydrate oxidation resulting from food intake and blood insulin rise. Likewise, animals fed high-carbohydrate diets have higher RQs than those fed high-fat diets.\nThe indirect calorimetry system (Panlab, Barcelona, Spain) consists of cages, pumps, flow controllers, valves, and analyzers. It is computer-controlled in order to sequentially measure O2 and CO2 concentrations as well as air flow in four separate cages allowing four simultaneous determinations. Rats are isolated in one of the four metabolic chambers, and room air is used as a reference to monitor ambient O2 and CO2 concentrations periodically.\nAt predefined intervals, the computer sends a signal to store differential CO2 and O2 concentrations, flow rate, allowing computing VCO2, VO2, RQ, and EE (Weir equation) with data acquisition hardware (Metabolism, Panlab, Barcelona, Spain)."}, "n0STZ rats": {"tested_on": "n0STZ rats", "assay": "Oral glucose tolerance test (OGTT) and pancreas mass in n0STZ rats", "conditions": "2.5 μg/100 g BW", "description": "N0STZ rats are diabetic non obese with moderate insulin-resistance, and have received an injection of streptozotocine just after the birth, said product killing pancreatic cells.\n(§1) The glucose resistance of these animals was tested by an oral glucose tolerance test (OGTT) Animals were fed with 2 g/kg BW of glucose and the Glucose concentration and Insulin concentration in blood were measured.\nThe glucose concentration (FIG. 35) and insulin concentration (FIG. 36) were then measured for this time."}, "Wistar rats [2]": {"tested_on": "Wistar rats", "assay": "De novo hepatic lipogenesis (stable isotopes)", "conditions": "rT3 2.5 μg/100 g BW", "from_the_text": "To confirm this point, the rate of endogenous triglyceride synthesis by using stable isotopes has been assessed."}, "Wistar rats [3]": {"tested_on": "Wistar rats", "assay": "Oral glucose tolerance test (OGTT) and pancreas mass in non-diabetic Wistar rats", "conditions": "2.5 μg/100 g BW, vs placebo", "description": "Wistar rats are non-diabetic, non-obese without insulin-resistance, however like in humans, they tend to get slightly obese and insulin resistant with age. However this is supposed to be “physiological”.\nThe glucose resistance of these animals was tested by an oral glucose tolerance test (OGTT). Animals were fed with 2 g/kg BW of glucose and the Glucose concentration and Insulin concentration in blood were measured."}, "ZDF rats": {"tested_on": "ZDF rats", "assay": "Body weight and food intake of ZDF rats", "conditions": "2.5 μg/100 g BW/day, 21 days", "description": "Adult male rat bred in the animal room facilities of Laboratory of Fundamental and Applied Bioenergetics (Wistar strain) or purchased from Charles-River Laboratories, Domaine des oncins, L'ARBRESLE France [(genetically obese normoglycemic (Zucker or Fa/Fa) or diabetic (ZDF)] were caged individually in stainless steel hanging cages and maintained in a 22° C., 50±10% relative humidity and 12 h:12 h light:dark environment. All animals were fed ad libitum with a standard rat chow (Safe A04, Villemoisson, France) and tap water. Body mass and food intake were recorded twice/thrice a week and fresh food was provided at the same time to ensure minimal disturbance to the animals' food behavior.\nThen ZDF rats were treated with low doses of rT3 for 21 days (2.5 μg/100 g BW/day) and the glycaemia, insulinaemia were measured after 8, 16 and 21 days."}, "GK rats": {"tested_on": "GK rats", "assay": "Oral glucose tolerance test (OGTT) and pancreas mass in GK rats", "conditions": "2.5 μg/100 g BW", "description": "GK rats are diabetic non obese with moderate insulin-resistance, and have lower pancreatic cells than control rats. The pancreatic cells are also less efficient in the insulin secretion.\nas §1\nThe glucose concentration (FIG. 40) and insulin concentration (FIG. 41) were then measured for this time."}, "Wistar rats [4]": {"tested_on": "Wistar rats", "assay": "Plasma concentrations of glucose, triglycerides, cholesterol, FFA and HDL in Wistar rats", "conditions": "for Glycerol (FIG. 60C), plasma / HDL (FIG. 60D), plasma: 21 days", "from_the_text": "These measurements were done on venous blood of the rats the day of the sacrifice.\nAt the end of the experimental period, animals were sacrificed by decapitation, in order to avoid the well-known effects of general anesthetics on mitochondrial metabolism. Blood samples were immediately collected and plasma was frozen for subsequent determination of serum metabolites and hormones. Liver, muscles and fat depots were quickly excised and weighed. Liver median lobe was rapidly freeze-clamped. Muscles (plantaris, soleus and gastrocnemius) were frozen in isopentane precooled in liquid nitrogen. Mesenteric fat consisted of adipose tissue surrounding the gastro-intestinal tract from the gastro-oesophageal sphincter to the end of the rectum with special care taken in distinguishing and removing the pancreas. Retroperitoneal fat pad was taken as the distinct depot behind each kidney along the lumbar muscles. Epididymal fat consisted of adipose tissue on top of the epididymis. For subcutaneous depot measurement, a rectangular piece of skin was taken on the right side of each animal from the median line of the abdomen between the spine and the right hip to the first rib. Interscapular brown adipose tissue was removed and dissected free from adjacent muscles and white adipose tissue. The heart ventricles, the right kidney and the spleen were also excised, weighed and frozen.\nGlucose and 3-hydroxybutyrate (3-HB) were measured enzymatically and non esterified fatty acid (NEFA) by colorimetric assay (Wako Chemicals).\nTriglycerides and cholesterol were measured by classical routine automate apparatus."}, "[5]": {"conditions": "25 μg/100 g BW pellet, vs placebo"}, "[6]": {"conditions": "2 g/kg glucose, 3 hours, vs placebo"}, "[7]": {"conditions": "5 first minutes following the OGTT"}, "[8]": {"conditions": "Wistar rats, high dosage 25 μg/100 g BW"}, "[9]": {"conditions": "Wistar rats, high dose 250 μg/kg BW/day, day of sacrifice, vs placebo"}, "[10]": {"conditions": "Wistar rats, low dosage 2.5 μg/100 g BW"}}, "note": "“Also recorded” adds a separate entry of the source."}
{"smiles": "N[C@@H](Cc1ccc(Oc2cc(I)c(O)c(I)c2)c(I)c1)C(=O)O", "note": "[rT3, 3′,5′,3-triiodothyronine]", "values": [{"measurement": "Energy expenditure and respiratory quotient (metabolic activity)", "setting": "Wistar rats [1]; intra-peritoneal pump", "value": "increase of the metabolic activity"}, {"measurement": "Energy expenditure and respiratory quotient (metabolic activity)", "setting": "Wistar rats [1]; sub-cutaneous pump", "value": "increase of the metabolic activity"}, {"measurement": "Respiratory quotient (RQ) during the day (diurnal period)", "setting": "Wistar rats [1]; [5]", "value": "almost identical to placebo"}, {"measurement": "Respiratory quotient (RQ) during the night", "setting": "Wistar rats [1]; [5]", "value": "higher"}, {"measurement": "Energy expenditure (EE, metabolism)", "setting": "Wistar rats [1]; daily intra-peritoneal injection", "value": "do no modify the metabolism"}, {"measurement": "Energy expenditure (EE, metabolism)", "setting": "Wistar rats [1]; daily per os", "value": "do no modify the metabolism"}, {"measurement": "Energy expenditure (EE, metabolism)", "setting": "Wistar rats [1]; daily sub-cutaneous injection", "value": "do no modify the metabolism"}, {"measurement": "Energy expenditure (EE, metabolic expenses)", "setting": "Wistar rats [1]; 25 μg/100 g BW/day, continuous subcutaneous pellet, 24 h calorimetry", "value": "enhanced metabolic expanses"}, {"measurement": "Respiratory quotient (RQ)", "setting": "Wistar rats [1]; 25 μg/100 g BW/day, continuous subcutaneous pellet, after 900 min", "value": "significant difference from the placebo treated animals"}, {"measurement": "Energy expenditure (EE)", "setting": "Wistar rats [1]; high dose 25 μg/100 g BW", "value": "significantly enhance"}, {"measurement": "Respiratory quotient (RQ)", "setting": "Wistar rats [1]; high dose 25 μg/100 g BW, vs placebo", "value": "increase"}, {"measurement": "Respiratory quotient (RQ)", "setting": "Wistar rats [1]; low dose 2.5 μg/100 g BW, vs placebo", "value": "increase"}, {"measurement": "Respiratory quotient (RQ)", "setting": "Wistar rats [1]; ultra low dose 0.25 μg/100 g BW, vs placebo", "value": "decrease"}, {"measurement": "AUC of the glucose concentration after OGTT", "setting": "n0STZ rats; [6]", "value": "significantly reduced"}, {"measurement": "AUC of the insulin concentration after OGTT", "setting": "n0STZ rats; [6]", "value": "largely enhanced"}, {"measurement": "Kinetic of blood glucose concentration after OGTT", "setting": "n0STZ rats; [7]", "value": "regulate more rapidly"}, {"measurement": "Kinetic of insulin concentration after OGTT", "setting": "n0STZ rats; 20 min kinetic", "value": "high increase"}, {"measurement": "Pancreas mass", "setting": "n0STZ rats; vs placebo", "value": "increase"}, {"measurement": "Endogenous (liver) synthesis of lipids", "setting": "Wistar rats [2]; day and night, effect maximal during the day", "value": "powerful stimulation"}, {"measurement": "Hepatic lipogenesis, increase", "setting": "Wistar rats [2]; vs placebo", "value": "~4", "unit": "fold"}, {"measurement": "AUC of the glucose concentration after OGTT", "setting": "Wistar rats [3]; 2 g/kg glucose, 3 hours", "value": "slightly reduced, however not significantly"}, {"measurement": "AUC of the insulin concentration after OGTT", "setting": "Wistar rats [3]; 2 g/kg glucose, 3 hours", "value": "significantly lower"}, {"measurement": "Pancreas mass", "setting": "Wistar rats [3]", "value": "moderate, albeit significant, increase"}, {"measurement": "Appetite (food intake)", "setting": "ZDF rats", "value": "not associated with a loose of appetite"}, {"measurement": "Animal mass (body weight)", "setting": "ZDF rats; vs placebo", "value": "slimmer; also recorded: reduced"}, {"measurement": "AUC of the glucose concentration after OGTT", "setting": "GK rats; [6]", "value": "significantly reduced"}, {"measurement": "AUC of the insulin concentration after OGTT", "setting": "GK rats; [6]", "value": "largely enhanced"}, {"measurement": "Kinetic of blood glucose concentration after OGTT", "setting": "GK rats; [7]", "value": "regulate more rapidly"}, {"measurement": "Kinetic of insulin concentration after OGTT", "setting": "GK rats; 20 min kinetic", "value": "increase"}, {"measurement": "Pancreas mass", "setting": "GK rats; vs placebo", "value": "increase"}, {"measurement": "Cholesterol plasmatic concentration", "setting": "Wistar rats [4]; Wistar rats, 250 μg/kg BW/day, day of sacrifice, vs placebo", "value": "significantly lower"}, {"measurement": "Glycerol (FIG. 60C), plasma", "setting": "Wistar rats [4]; [8]", "value": "reduction"}, {"measurement": "HDL (FIG. 60D), plasma", "setting": "Wistar rats [4]; [8]", "value": "reduction"}, {"measurement": "Plasma free fatty acids (FFA)", "setting": "Wistar rats [4]; [9]", "value": "higher; also recorded: stimulates the liberation of FFA"}, {"measurement": "Triglycerides plasmatic concentration", "setting": "Wistar rats [4]; [9]", "value": "significantly lower; also recorded: degradation of triglycerides"}, {"measurement": "Glycerol (FIG. 60C), plasma", "setting": "Wistar rats [4]; [10]", "value": "reduction"}, {"measurement": "HDL (FIG. 60D), plasma", "setting": "Wistar rats [4]; [10]", "value": "reduction"}, {"measurement": "Fasting glucose plasmatic concentration", "setting": "Wistar rats [4]; normal (non diabetic) Wistar rats, 250 μg/kg BW/day, day of sacrifice, vs placebo", "value": "slightly increased"}]}
